Data published in patent US7238694B2, “Rifamycin imino derivatives effective against drug-resistant microbes” (Cumbre Pharmaceuticals, Inc., priority 2004, dated 2007).
Converted amounts (≈) assume the structure as drawn.

Key:
Type in all cases: cell-based
[1] = system: Staphylococcus aureus ATCC29213; experiment: MIC, microbroth dilution (NCCLS); conditions: rifS strain, Cation-Adjusted Mueller-Hinton Broth, 37° C., read-out: MIC
[2] = system: Staphylococcus aureus ATCC29213 rpoB^H418Y; experiment: microbe, parasite or virus in culture; conditions: Staphylococcus aureus, ATCC29213; rifR strain; Cation-Adjusted Mueller-Hinton Broth, 37° C.; read-out: MIC
[3] = system: Staphylococcus aureus MT1222 gyrA^A116E grlB^S80F; experiment: microbe, parasite or virus in culture; conditions: cipR strain, Cation-Adjusted Mueller-Hinton Broth, 37° C., read-out: MIC
[4] = system: Staphylococcus epidermidis ATCC12228; experiment: MIC, microbroth dilution (NCCLS); conditions: rifS strain, Cation-Adjusted Mueller-Hinton Broth, 37° C., read-out: MIC
[5] = system: Streptococcus pneumoniae ATCC6303; experiment: MIC, microbroth dilution (NCCLS); conditions: rifS strain, THY Broth with 1 mg/mL catalase, 5% CO2, 37° C., read-out: MIC
[6] = system: Streptococcus pyogenes ATCC19615; experiment: MIC, microbroth dilution (NCCLS); conditions: rifS strain, THY Broth, 37° C., read-out: MIC
[7] = system: Haemophilus influenzae ATCC10211; experiment: MIC, microbroth dilution (NCCLS); conditions: rifS strain, BHI Broth with NAD and hematin, 37° C., read-out: MIC

SMILES	MIC [1] [µg/mL]	MIC [2] [µg/mL]	MIC [3] [µg/mL]	MIC [4] [µg/mL]	MIC [5] [µg/mL]	MIC [6] [µg/mL]	MIC [7] [µg/mL]
CO[C@H]1/C=C/O[C@@]2(C)Oc3c(C)c(O)c4c(O)c(c(/C=N/N5CCC(NC6(C7CCN(c8c(F)cc9c(=O)c(C(=O)O)cn(C%10CC%10)c9c8Cl)C7)CC6)CC5)c(O)c4c3C2=O)NC(=O)/C(C)=C\C=C\[C@H](C)[C@H](O)[C@@H](C)[C@@H](O)[C@@H](C)[C@H](OC(C)=O)[C@@H]1C (mixture of isomers) [Example 45, (R/S)-3-[4-[1-[1-(3-Carboxy-1-cyclopropyl-7-fluoro-8-chloro-4-oxo-4H-quinolin-7-yl)pyrrolidin-3-yl]cycloprop-1-ylamino]piperidin-1-ylaminomethylenyl]rifamycin SV]	0.008 to 1 (≈ 0.0066 to 0.825 µM)	0.06 to 16 (≈ 0.0495 to 13.2 µM)	0.008 to 0.125 (≈ 0.0066 to 0.103 µM)	0.008 to 0.1 (≈ 0.0066 to 0.0825 µM)	0.008 to 0.06 (≈ 0.0066 to 0.0495 µM)	0.008 to 0.03 (≈ 0.0066 to 0.0248 µM)	0.125 to 4 (≈ 0.103 to 3.3 µM)
COc1c(N2CCC(C3(NC4CCN(/N=C/c5c6c(O)c7c(O)c(C)c8c(c7c5O)C(=O)[C@@](C)(O/C=C/[C@H](OC)[C@@H](C)[C@@H](OC(C)=O)[C@H](C)[C@H](O)[C@H](C)[C@@H](O)[C@@H](C)/C=C/C=C(/C)C(=O)N6)O8)CC4)CC3)C2)c(F)cc2c(=O)c(C(=O)O)cn(C3CC3)c12 (mixture of isomers) [Example 46]	0.008 to 1 (≈ 0.00663 to 0.828 µM)	0.06 to 16 (≈ 0.0497 to 13.3 µM)	0.008 to 0.125 (≈ 0.00663 to 0.104 µM)	0.008 to 0.1 (≈ 0.00663 to 0.0828 µM)	0.008 to 0.06 (≈ 0.00663 to 0.0497 µM)	0.008 to 0.03 (≈ 0.00663 to 0.0248 µM)	0.125 to 4 (≈ 0.104 to 3.31 µM)
CO[C@H]1/C=C/O[C@@]2(C)Oc3c(C)c(O)c4c(O)c(c(/C=N/N5CCN(c6cc7c(cc6F)c(=O)c(C(=O)O)cn7C6CC6)CC5)c(O)c4c3C2=O)NC(=O)/C(C)=C\C=C\[C@H](C)[C@H](O)[C@@H](C)[C@@H](O)[C@@H](C)[C@H](OC(C)=O)[C@@H]1C [Example 4, 3-[4-(3-Carboxy-1-cyclopropl-6-fluoro-4-oxo-1,4-dihydroquinolin-7-yl)piperazin-1-yl-aminomethylenyl]rifamycin SV]	0.008 to 1 (≈ 0.00759 to 0.949 µM)	0.06 to 16 (≈ 0.0569 to 15.2 µM)	0.008 to 0.125 (≈ 0.00759 to 0.119 µM)	0.008 to 0.1 (≈ 0.00759 to 0.0949 µM)	0.008 to 0.06 (≈ 0.00759 to 0.0569 µM)	0.008 to 0.03 (≈ 0.00759 to 0.0285 µM)	0.125 to 4 (≈ 0.119 to 3.79 µM)
CO[C@H]1/C=C/O[C@@]2(C)Oc3c(C)c(O)c4c(c3C2=O)C(=O)C(/C=N/N2CCN(c3cc5c(cc3F)c(=O)c(C(=O)O)cn5C3CC3)CC2)=C(NC(=O)/C(C)=C\C=C\[C@H](C)[C@H](O)[C@@H](C)[C@@H](O)[C@@H](C)[C@H](OC(C)=O)[C@@H]1C)C4=O [Example 5, 3-[4-(3-Carboxy-1-cyclopropl-6-fluoro-4-oxo-1,4-dihydroquinolin-7-yl)-piperazin-1-yl-aminomethylenyl]rifamycin S]	0.008 to 1 (≈ 0.0076 to 0.95 µM)	0.06 to 16 (≈ 0.057 to 15.2 µM)	0.008 to 0.125 (≈ 0.0076 to 0.119 µM)	0.008 to 0.1 (≈ 0.0076 to 0.095 µM)	0.008 to 0.06 (≈ 0.0076 to 0.057 µM)	0.008 to 0.03 (≈ 0.0076 to 0.0285 µM)	0.125 to 4 (≈ 0.119 to 3.8 µM)
CO[C@H]1/C=C/O[C@@]2(C)Oc3c(C)c(O)c4c(c3C2=O)C(=O)C(/C=N/N2CCN(c3nc5c(cc3F)c(=O)c(C(=O)O)cn5-c3ccc(F)cc3F)CC2)=C(NC(=O)/C(C)=C\C=C\[C@H](C)[C@H](O)[C@@H](C)[C@@H](O)[C@@H](C)[C@H](OC(C)=O)[C@@H]1C)C4=O [Example 10, 3-[4-[3-Carboxy-1-(2,4-difluoro-phenyl)-6-fluoro-4-oxo-1,4-dihydro-[1,8]naphthyridine-7-yl]-piperazin-1-ylaminomethylenyl]rifamycin S]	0.008 to 1 (≈ 0.00711 to 0.889 µM)	0.06 to 16 (≈ 0.0533 to 14.2 µM)	0.008 to 0.125 (≈ 0.00711 to 0.111 µM)	0.008 to 0.1 (≈ 0.00711 to 0.0889 µM)	0.008 to 0.06 (≈ 0.00711 to 0.0533 µM)	0.008 to 0.03 (≈ 0.00711 to 0.0267 µM)	0.125 to 4 (≈ 0.111 to 3.56 µM)
COc1c(N2CC3CCCN(/N=C/C4=C5NC(=O)/C(C)=C\C=C\[C@H](C)[C@H](O)[C@@H](C)[C@@H](O)[C@@H](C)[C@H](OC(C)=O)[C@H](C)[C@@H](OC)/C=C/O[C@@]6(C)Oc7c(C)c(O)c(c(c7C6=O)C4=O)C5=O)C3C2)c(F)cc2c(=O)c(C(=O)O)cn(C3CC3)c12 (stereo partly drawn) [Example 13, 3-[6-(3-Carboxy-1-cyclopropyl-6-fluoro-8-methoxy-4-oxo-1,4-dihydroquinolin-7-yl)-octahydropyrrolo[3,4-b]pyridin-1-yl-aminomethylenyl]rifamycin S]	0.008 to 1 (≈ 0.00713 to 0.891 µM)	0.06 to 16 (≈ 0.0535 to 14.3 µM)	0.008 to 0.125 (≈ 0.00713 to 0.111 µM)	0.008 to 0.1 (≈ 0.00713 to 0.0891 µM)	0.008 to 0.06 (≈ 0.00713 to 0.0535 µM)	0.008 to 0.03 (≈ 0.00713 to 0.0267 µM)	0.125 to 4 (≈ 0.111 to 3.56 µM)
